# Test results from PubChem BioAssay (NCI).
#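 Five concentrations, 48 hours, 96-well plates. GI50: concentration for 50% inhibition of growth. TGI: concentration producing complete growth inhibition.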
# Experiments:
# Test in all cases: NCI anticancer screen, dose series, 48 h
# OVCAR-4 ovarian = system: OVCAR-4 ovarian
# KM12 colon = system: KM12 colon
# MALME-3M melanoma = system: MALME-3M melanoma
# BT-549 breast = system: BT-549 breast
# MDA-MB-435 = system: MDA-MB-435
# SF-295 CNS = system: SF-295 CNS
# SK-MEL-5 melanoma = system: SK-MEL-5 melanoma
# T-47D breast = system: T-47D breast
# UO-31 renal = system: UO-31 renal
# SN12C renal = system: SN12C renal
Compound,TGI (OVCAR-4 ovarian),TGI (KM12 colon),TGI (MALME-3M melanoma),TGI (BT-549 breast),TGI (MDA-MB-435),TGI (SF-295 CNS),TGI (SK-MEL-5 melanoma),TGI (T-47D breast),TGI (UO-31 renal),TGI (SN12C renal),GI50 (MDA-MB-435),GI50 (OVCAR-4 ovarian),GI50 (KM12 colon),GI50 (MALME-3M melanoma),GI50 (BT-549 breast),GI50 (SF-295 CNS),GI50 (SK-MEL-5 melanoma),GI50 (T-47D breast),GI50 (UO-31 renal),GI50 (SN12C renal)
CCOC(=O)/C(C(=O)c1ccc[nH]1)=C1/CCCN1C,> 100 µM,> 100 µM,> 100 µM,> 100 µM,> 100 µM,> 100 µM,> 100 µM,> 100 µM,> 100 µM,> 100 µM,–,–,–,–,–,–,–,–,–,–
Clc1ccc(Cc2nc3cc4ccccc4cc3[nH]2)cc1Cl,36.8 µM,45.9 µM,39.4 µM,37.2 µM,49.3 µM,–,20.4 µM,39.7 µM,28.5 µM,52.2 µM,–,–,–,–,–,–,–,–,–,–
COC(=O)C(=O)C(C(=O)C(=O)Nc1cc(C)ccc1C)c1nc2ccccc2[nH]c1=O (configuration not stated),> 100 µM,> 100 µM,> 100 µM,> 100 µM,> 100 µM,> 100 µM,> 100 µM,> 100 µM,> 100 µM,> 100 µM,–,–,–,–,–,–,–,–,–,–
CCCNC(=O)c1cc(OC)c(OC)cc1NC(=O)C12CC3CC(CC(C3)C1)C2,33.6 µM,32 µM,32.9 µM,31.9 µM,32.8 µM,35.9 µM,> 100 µM,40.4 µM,30.1 µM,29.6 µM,–,–,–,–,–,–,–,–,–,–
CC(C)C1OC(=O)C(Cc2ccccc2)N(C)C(=O)C(C(C)C)OC(=O)C(Cc2ccccc2)N(C)C(=O)C(C(C)C)OC(=O)C(Cc2ccccc2)N(C)C1=O (configuration not stated),1.18 µM,1.33 µM,1.29 µM,3.01 µM,1.41 µM,1.79 µM,1.08 µM,3.25 µM,1.27 µM,2.14 µM,–,–,–,–,–,–,–,–,–,–
CNC(=O)OC1/C(C)=C\C(C)C(O)C(OC)CC(C)CC2=C(OC)C(=O)C=C(C2=O)N(C)C(=O)/C(C)=C/C=C\C1OC (configuration not stated),22 µM,26.3 µM,27.1 µM,18.5 µM,> 100 µM,46.5 µM,21.5 µM,6.14 µM,31.7 µM,16.5 µM,> 100 µM,–,–,–,–,–,–,–,–,–
CCN(CC)C(=O)N[C@@H](CC(C)C)C(=O)NC,> 100 µM,> 100 µM,> 100 µM,> 100 µM,> 100 µM,> 100 µM,> 100 µM,> 100 µM,> 100 µM,> 100 µM,–,–,–,–,–,–,–,–,–,–
O=c1[nH]nc(-c2cccc([N+](=O)[O-])c2)[nH]1,> 100 µM,> 100 µM,> 100 µM,> 100 µM,> 100 µM,> 100 µM,–,> 100 µM,> 100 µM,> 100 µM,–,–,–,–,–,–,–,–,–,–
Cc1n[nH]c(=O)c2c3c([nH]c12)-c1ccccc1C3,> 100 µM,> 100 µM,> 100 µM,> 100 µM,> 100 µM,> 100 µM,> 100 µM,> 100 µM,> 100 µM,> 100 µM,–,–,–,–,–,–,–,–,–,–
Cc1[nH]c2c(C)c3c([nH]c4ccc(Cl)cc43)c(C)c2c(=O)c1C,> 64.1 µM,77.2 µM,72.8 µM,> 100 µM,> 53.5 µM,36.2 µM,42.2 µM,16.8 µM,38.9 µM,15.1 µM,–,–,–,–,–,–,–,–,–,–
NS(=O)(=O)c1ccc(Nc2c3ccccc3nc3c(C(=O)NC(CO)(CO)CO)cccc23)cc1,0.193 µM,0.309 µM,0.272 µM,0.322 µM,0.558 µM,> 1 µM,0.229 µM,> 1 µM,0.366 µM,0.695 µM,–,–,–,–,–,–,–,–,–,–
CCCCCCCC(=O)NC(C)(C)C(=O)NCC(=O)NC(CC(C)C)C(=O)NC(C)(C)C(=O)NCC(=O)NCC(=O)NC(CC(C)C)C(=O)NC(C)(C)C(=O)NCC(=O)NC(C(=O)NC(CO)CC(C)C)C(C)CC (configuration not stated),7.9 µM,5.15 µM,8.93 µM,6.87 µM,8.24 µM,7.76 µM,7.19 µM,7.23 µM,7.93 µM,7.7 µM,–,–,–,–,–,–,–,–,–,–
O=C(c1ccccc1)c1nn(-c2cccc(Cl)c2)c2nc3nc(-c4ccccc4)cc(=O)n3nc12,> 25 µM,> 25 µM,> 25 µM,> 25 µM,> 25 µM,> 25 µM,> 25 µM,> 25 µM,> 25 µM,> 25 µM,> 25 µM,> 25 µM,> 25 µM,> 25 µM,> 25 µM,> 25 µM,> 25 µM,> 25 µM,> 25 µM,> 25 µM
N#CCCN(C(=O)Nc1ccc(NC(=O)N(CCC#N)c2ccccc2)cc1)c1ccccc1,> 100 µM,> 100 µM,> 100 µM,> 100 µM,> 100 µM,> 100 µM,> 100 µM,> 100 µM,> 100 µM,> 100 µM,–,–,–,–,–,–,–,–,–,–
C=CCCCCCCCCCOC1C=CC(O)C(CO)O1 (configuration not stated),> 100 µM,85.1 µM,73.3 µM,> 100 µM,> 100 µM,> 100 µM,48.1 µM,> 100 µM,> 100 µM,> 100 µM,–,–,–,–,–,–,–,–,–,–
NC1=Nc2ncccc2C(=O)NN1,–,> 10 µM,> 10 µM,> 10 µM,> 10 µM,> 10 µM,> 10 µM,> 10 µM,> 10 µM,> 10 µM,–,–,–,–,–,–,–,–,–,–
C(/C=C(\Nc1ccccc1)c1ccc2ccccc2c1)=Nc1ccccc1,14.5 µM,12.2 µM,15 µM,4.6 µM,1.27 µM,4.28 µM,13.8 µM,12.9 µM,15.8 µM,5.15 µM,–,–,–,–,–,–,–,–,–,–
Cc1ccc(NC(c2ccccc2)P(=O)(c2ccccc2)c2ccccc2)cc1 (configuration not stated),> 100 µM,> 100 µM,> 100 µM,> 100 µM,> 100 µM,> 100 µM,> 100 µM,> 100 µM,> 100 µM,> 100 µM,–,–,–,–,–,–,–,–,–,–
Cc1cccc(NC(=S)NNC(=O)c2cc(-c3ccccc3)nc3ccccc23)c1,> 100 µM,> 100 µM,83.8 µM,> 100 µM,85.7 µM,–,39 µM,> 100 µM,57.1 µM,> 100 µM,–,–,–,–,–,–,–,–,–,–
